Where a name gives a salt, the structure may show the parent alone.
Biological target: DDR1 kinase (Homo sapiens, UniProt Q08345)
Assay: Evaluation of DDR1 kinase inhibition (LANCE Ultra TR-FRET kinase assay)
Format: biochemical
Set-up: purchased Carna Biosciences 08-113
Details: DDR1 protein 0.5 nM, LANCE Ultra ULight-poly GAT substrate, 2 hours at room temperature, duplicate; read-out: DDR-1 IC50

Chain of DDR1 kinase (Q08345 19-876 isoform Q08345-2 limits assumed): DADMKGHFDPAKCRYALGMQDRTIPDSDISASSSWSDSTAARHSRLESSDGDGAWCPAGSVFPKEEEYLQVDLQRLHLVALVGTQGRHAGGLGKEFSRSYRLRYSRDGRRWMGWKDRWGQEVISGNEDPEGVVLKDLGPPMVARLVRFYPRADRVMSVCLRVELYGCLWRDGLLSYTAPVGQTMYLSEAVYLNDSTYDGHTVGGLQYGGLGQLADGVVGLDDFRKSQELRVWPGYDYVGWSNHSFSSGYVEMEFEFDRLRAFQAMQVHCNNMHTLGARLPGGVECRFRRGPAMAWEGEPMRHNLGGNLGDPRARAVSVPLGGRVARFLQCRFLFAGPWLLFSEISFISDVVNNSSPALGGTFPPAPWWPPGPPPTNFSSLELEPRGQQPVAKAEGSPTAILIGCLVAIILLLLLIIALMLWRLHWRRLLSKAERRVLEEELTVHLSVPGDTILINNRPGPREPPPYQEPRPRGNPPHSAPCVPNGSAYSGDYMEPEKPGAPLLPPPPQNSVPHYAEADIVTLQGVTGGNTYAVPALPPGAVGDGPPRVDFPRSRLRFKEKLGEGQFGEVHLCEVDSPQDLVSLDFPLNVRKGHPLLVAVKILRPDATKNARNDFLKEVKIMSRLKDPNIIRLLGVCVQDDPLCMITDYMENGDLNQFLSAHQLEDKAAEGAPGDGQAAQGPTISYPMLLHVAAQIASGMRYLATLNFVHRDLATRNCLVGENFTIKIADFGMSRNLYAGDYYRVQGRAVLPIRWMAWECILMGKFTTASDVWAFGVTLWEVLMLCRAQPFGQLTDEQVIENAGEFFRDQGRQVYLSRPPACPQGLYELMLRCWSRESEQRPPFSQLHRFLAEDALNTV

SMILES | IC50 [nM]
Nc1nccc(C(=O)N2CC(c3nn(CC(=O)N4CCC[C@H]4C(F)(F)F)c4ccc(F)cc34)C2)n1 [Compound E-241, 2-{3-[1-(2-aminopyrimidine-4-carbonyl)azetidin-3-yl]-5-fluoro-1H-indazol-1-yl}-1-[(2S)-2-(trifluoromethyl)pyrrolidin-1-yl]ethan-1-one] | 4.3
Cc1nc(N)sc1C(=O)N1CC(c2nn(CC(=O)N3CCOCC3(C)C)c3ccccc23)C1 [Compound E-7, 2-{3-[1-(2-amino-4-methyl-1,3-thiazole-5-carbonyl)azetidin-3-yl]-1H-indazol-1-yl}-1-(3,3-dimethylmorpholin-4-yl)ethan-1-one] | 15
CC(C(=O)N1CCC[C@H]1C(F)(F)F)n1nc(C2CN(C(=O)c3ccnc(N)c3)C2)c2c(F)cc(F)cc21 (stereo partly drawn) [Compound E-103, 2-{3-[1-(2-aminopyridine-4-carbonyl)azetidin-3-yl]-4,6-difluoro-1H-indazol-1-yl}-1-[(2S)-2-(trifluoromethyl)pyrrolidin-1-yl}propane-1-one hydrochloride] | 14
Nc1cc(C(=O)N2CC(c3nn(CC(=O)NC4CC5CCC4C5)c4cccc(F)c34)C2)ccn1 (centres unmarked) [Compound E-238, 2-{3-[1-(2-aminopyridine-4-carbonyl)azetidin-3-yl]-4-fluoro-1H-indazol-1-yl}-N-{bicyclo[2.2.1]heptan-2-yl}acetamide] | 5.6
Cc1nccc2c1c(C1CN(C(=O)c3ccnc(NC4CC4)c3)C1)nn2CC(=O)N1CCC[C@H]1C(F)(F)F [Compound E-93, 2-(3-{1-[2-(cyclopropylamino)pyridine-4-carbonyl]azetidin-3-yl}-4-methyl-1H-pyrazolo[4,3-c]pyridin-1-yl)-1-[(2S)-2-(trifluoromethyl)pyrrolidin-1-yl]ethan-1-one] | 110
Nc1cc(C(=O)N2CC(F)(c3nn(CC(=O)N4CCC[C@H]4C(F)(F)F)c4ccccc34)C2)c(F)cn1 [Compound E-285, 2-(3-[1-(2-amino-5-fluoropyridine-4-carbonyl)-3-fluoroazetidin-3-yl]-1H-indazol-1-yl}-1-[(2S)-2-(trifluoromethyl)pyrrolidin-1-yl]ethan-1-one] | 1.3
C[C@@H]1CCC[C@H](C)N1C(=O)Cn1nc(C2CN(C(=O)c3cc(N)ncc3F)C2)c2ccccc21 [Compound E-266, 2·{3-[1-(2-amino-5-fluoropyridine-4-carbonyl)azetidin-3-yl]-1H-indazol-1-yl}-1-[(2R,68)-2,6-dimethylpiperidin-1-yl]ethan-1-one] | 4.5
O=C(C1CCOCC1)N1CC(c2nn(CC(=O)N3CCC[C@H]3C(F)(F)F)c3cc(F)cc(F)c23)C1 [Compound E-162, 2-{4,6-difluoro-3-[1-(oxane-4-carbonyl)azetidin-3-yl]-1H-indazol-1-yl}-1-[(2S)-2-(trifluoromethyl)pyrrolidin-1-yl]ethan-1-one] | 320
Nc1cc(C(=O)N2CC(c3nn(CC(=O)N4CCC[C@H]4C(F)(F)F)c4ccc(Cl)cc34)C2)ccn1 [Compound E-207, 2-{3-[1-(2-aminopyridine-4-carbonyl)azetidin-3-yl]-6-chloro-1H-indazol-1-yl}-1-[(28)-2-(trifluoromethyl)pyrrolidin-1-yl]ethan-1-one] | 1.6
COc1ccc2c(c1)c(C1CN(C(=O)c3cc(N)ncc3F)C1)nn2CC(=O)N1CCC[C@H]1C(F)(F)F [Compound E-291, 2-(3-(1-(2-amino-5-fluoropyridine-4-carbonyl)azetidin-3-yl]-5-methoxy-1H-indazol-1-yl}·1-[(2S)-2-(trifluoromethyl)pyrrolidin-1-yl]ethan-1-one] | 2.6
O=C(c1ccnc2[nH]ncc12)N1CC(c2nn(CC(=O)N3CCC[C@H]3C(F)(F)F)c3cc(F)cc(F)c23)C1 [Compound E-17] | 0.3
Nc1nccc(C(=O)N2CC(c3nn(CC(=O)N4CCC[C@H]4C(F)(F)F)c4cc(F)c(F)cc34)C2)n1 [Compound E-283, 2-{3-[1-(2-aminopyrimidine-4-carbonyl)azetidin-3-yl]-5,6-diffuoro-1H-indazol-1-yl}-1-[(2S)-2-(trifluoromethyl)pyrrolidin-1-yl}ethan-1-one] | 4.5
Nc1cc(C(=O)N2CC(c3nn(Cc4noc(C5(C(F)(F)F)CCC5)n4)c4cccc(F)c34)C2)ccn1 [Compound E-146, 4-{3-[4-fluoro-1-({5-[1-(trifluoromethyl)cyclobutyl]-1,2,4-oxadiazol-3-yl}methyl)-1H-indazol-3-yl]azetidine-1-carbonyl}pyridin-2-amine hydrochloride] | 0.4
Nc1cc(C(=O)N2CC(c3nn(Cc4noc(-c5ccc(F)cn5)n4)c4cccc(F)c34)C2)ccn1 [Compound E-153, 4-{3-(4-fluoro-1-{[5-(5-fluoropyridin-2-yl)-1,2,4-oxadiazol-3-yl]methyl}-1H-indazol-3-yl)azetidine-1-carbonyl]pyridin-2-amine] | 140
Nc1cc(C(=O)N2CC(c3nn(Cc4noc(C5(C(F)(F)F)CC5)n4)c4cccc(F)c34)C2)ccn1 [Compound E-147] | 0.3
CC1(C)COCCN1C(=O)Cn1nc(C2CN(C(=O)c3cc(N)ncc3F)C2)c2c(F)cc(F)cc21 [Compound E-177, 2-{3-[1-(2-amino-5-fluoropyridine-4-carbonyl)azetidin-3-yl)-4,6-difluoro-1H-indazol-1-yl}-1-(3,3-dimethylmorpholin-4-yl)ethan-1-one] | 2.1

SMILES | IC50 [nM]
Nc1cc(C(=O)N2CC(c3nn(CC(=O)N4CCC[C@H]4C(F)(F)F)c4ccc(F)cc34)C2)ccn1 [Compound E-202, 2-{3-[1-(2-aminopyridine-4-carbonyl)azetidin-3-yl]-5-fluoro-1H-indazol-1-yl}-1-[(28)-2-(trifluoromethyl)pyrrolidin-1-yl]ethan-1-one] | 1.1
Nc1cc(C(=O)N2CC(c3nn(Cc4noc(-c5cccc(C(F)(F)F)c5)n4)c4cccc(F)c34)C2)ccn1 [Compound E-117, 4-{3-[4-fluoro-1-({5-[3-(trifluoromethyl)phenyl])-1,2,4-oxadiazol-3-ylimethyl)-1H-indazol-3-yl]azetidine-1-carbonyl}pyridin-2-amine] | 56
COCC(C)(C)NC(=O)Cn1nc(C2CN(C(=O)c3ccnc(N)c3)C2)c2ccccc21 [Compound E-208] | 170
CN(CC(F)(F)F)C(=O)Cn1nc(C2CN(C(=O)c3ccnc(N)n3)C2)c2ccc(F)cc21 [Compound E-284, 2-{3-[1-(2-aminopyrimidine-4-carbonyl)azetidin-3-yl]-6-fluoro-1H-indazol-1-yl}-N-methyl-N-(2,2,2-trifluoroethyl)acetamide] | 54
Nc1cc(C(=O)N2CC(c3nn(CC(=O)NC4CCOCC4)c4ccccc34)C2)ccn1 [Compound E-233, 2-{3-[1-(2-aminopyridine-4-carbonyl)azetidin-3-yl]-1H-indazol-1-yl}-N-(oxan-4-yl)acetamide] | 500
CC1(C)CCc2c(c(C3CN(C(=O)c4ccnc(N)n4)C3)nn2CC(=O)N2CCC[C@H]2C(F)(F)F)C1 [Compound E-295, 2-{3-[1-(2-aminopyrimidine-4-carbonyl)azetidin-3-yl]-5,5-dimethyl-4,5,6,7-tetrahydro-1H-indazol-1-yl}-1-[(2S)-2-(trifluoromethyl)pyrrolidin-1-yl]ethan-1-one] | 160
CC1(NC(=O)Cn2nc(C3CN(C(=O)c4ccnc(N)c4)C3)c3ccccc32)CCOCC1 [Compound E-209, 2-{3-[1-(2-aminopyridine-4-carbonyl)azetidin-3-yl]-1H-indazol-1-yl}-N-(4-methyloxan-4-yl)acetamide] | 280
CC[C@@H]1CCCN1C(=O)Cn1nc(C2CN(C(=O)c3ccnc(N)c3)C2)c2ccccc21 [Compound E-222, 2-{3-[1-(2-aminopyridine-4-carbonyl)azetidin-3-yl)-1H-indazol-1-yl}-1-[(2R)-2-ethylpyrrolidin-1-yl]ethan-1-one] | 2.1
Nc1cc(C(=O)N2CCC(c3nn(CC(=O)N4CCC[C@H]4C(F)(F)F)c4cccc(F)c34)CC2)c(F)cn1 [Compound E-174, 2-{3-[1-(2-amino-5-fluoropyridine-4-carbonyl)piperidin-4-yl]-4-fluoro-1H-indazol-1-yl}-1-[(2S)-2-(trifluoromethyl)pyrrolidin-1-yl]ethan-1-one] | 1.1
O=C(Cn1nc(C2CN(C(=O)c3ccnc(NC4COC4)c3)C2)c2c(F)cc(F)cc21)NCC(F)(F)F [Compound E-32, 2-[4,6-difluoro-3-(1-{2-[(oxetan-3-yl)amino]pyridine-4-carbonyl}azetidin-3-yl)-1H-indazol-1-yl]-N-(2,2,2-trifluoroethyl)acetamide] | 160
Nc1cc(C(=O)N2CC(c3nn(CC(=O)NC4CCC(F)(F)CC4)c4ccccc34)C2)ccn1 [Compound E-235, 2-{3-[1-(2-aminopyridine-4-carbonyl)azetidin-3-yl]-1H-indazol-1-yl}-N-(4,4-difluorocyclohexyl)acetamide] | 59
CC(C)(C)NC(=O)Cn1nc(C2CN(C(=O)c3cc(N)ncc3F)C2)c2ccccc21 [Compound E-199, 2-{3-[1-(2-amino-5-fluoropyridine-4-carbonyl)azetidin-3-yl]-1H-indazol-1-yl}-N-tert-butylacetamide] | 5.2
Nc1cc(C(=O)N2CC(c3nn(CC(=O)NCC(F)(F)F)c4cccc(Cl)c34)C2)ccn1 [Compound E-62, 2-{3-[1-(2-aminopyridine-4-carbonyl)azetidin-3-yl}-4-chloro-1H-indazol-1-yl}-N-(2,2,2-trifluoroethyl)acetamide] | 9.3
Nc1cc(C(=O)N2CC(c3nn(CC(=O)N4CCc5ccc(C6CC6)cc54)c4cc(F)cc(F)c34)C2)ccn1 [Compound E-172] | 1.3
Nc1cc(C(=O)N2CC(c3nn(CC(=O)N4CCC[C@H]4CO)c4ccccc34)C2)ccn1 [Compound E-219, 2-{3-[1-(2-aminopyridine-4-carbonyl)azetidin-3-yl]-1H-indazol-1-yl]-1-[(2S)-2-(hydroxymethyl)pyrrolidin-1-yl]ethan-1-one] | 160
Nc1cc(C(=O)N2CC(c3nn(Cc4ccc(C(F)(F)F)cc4)c4cncc(F)c34)C2)ccn1 [Compound E-151, 4-[3-(4-fluoro-1-{[4-(trifluromethyl)phenyl]methyl}-1H-pyrazolo[3,4-c]pyridin-3-yl)azetidine-1-carbonyl]pyridin-2-amine] | 160
